Measured values published in patent publication US20250129334A1, “LINEAGE SPECIFICATION DURING STEM CELL TRANSITION” (Amniotics AB, priority 2021, published 2025).

Legend:
[1] = tested on: LT-HSCs; assay: CFU assay of LT-HSCs sorted from fetal livers of treated embryos; assay type: in vivo, mice; settings: DCA-treated embryos vs control and UK5099
Protocol: For fetal liver analysis, pregnant female C57Bl/6xB6.SJL mice were injected intraperitoneally at E9.5 with UK5099 (4 mg/kg) or DCA (200 mg/kg) or PBS (control). Embryos were harvested at E14.5 and individually weighed and processed. Fetal livers were dissected and homogenised in 800 μL ice cold PBS supplemented with 2% fetal bovine serum (FBS) and FL cells were washed in PBS with 2%/FBS. For the differentiated lineage panel, cells were stained with B220 and CD19 (B-cell markers)-PE, CD3e-APC, Ter119-PeCy7 and CD71-FITC and analyzed on a BD FACSARIA III. For the HSC panel, samples were first treated with ammonium chloride solution (STEMCELL Technologies, France) to lyse red blood cells, washed twice in ice cold PBS with 2% FBS, stained with CD3e, B220, Ter119, Gr1 (Lineage)-PeCy5, c-Kit-Efluor780, Sca1-BV421, CD48-FITC, CD150-BV605 and 7-AAD (for dead cell exclusion) and analyzed on a BD FACSARIA III. […] For plating of CFU assays, 100 LT-HSCs were sorted (gating strategy shown in FIG. 11, e) and resuspended in 3.0 mL Methocult M3434 (STEMCELL Technologies, France). Each mixture was divided onto 2 wells of a non-tissue culture treated 6-well plate. Following a 14-day incubation in a humidified incubator at 37° C., 5% CO2, 20% O2, colonies were morphologically distinguished and scored. […] Cells were stained with anti-cKit and anti-CD45 antibodies and analyzed on a BD LSRFortessa. […]

[2] = tested on: HSC-like cells; assay: HSC-like cell subculture with metabolic regulators, flow cytometry; assay type: cell-based, human; settings: day 3, UK5099 10 μM
Excerpt: The RB9-CB1 human iPSC line (Woods, N.-B. et al. Brief report: efficient generation of hematopoietic precursors and progenitors from human pluripotent stem cell lines. Stem Cells 29, 1158-1164 (2011)) was co-cultured with mouse embryonic fibroblasts (MEFs, Millipore), passaged every six days and processed to form embryoid bodies (EBs) as described previously (Guibentif, C. et al. Single-Cell Analysis Identifies Distinct Stages of Human Endothelial to-Hematopoietic Transition. Cell Reports 19, 10-19 (2017)). The differentiation protocol used in this study was previously described (Ditadi, A. & Sturgeon, C. M. Directed differentiation of definitive hemogenic endothelium and hematopoietic progenitors from human pluripotent stem cells. Methods 101, 65-72 (2016)), however, small modifications were made to induce both primitive and definitive hematopoiesis, as indicated below and in FIG. 6, a. Newly-formed EBs were first kept in SFD medium supplemented with 1 ng/ml Activin A (on days 0-2) and 3 μM CHIR99021 (on day 2 only). At day 3, media was switched to “Day 3-SP34” medium supplemented with 1 ng/ml Activin A (on day 3 only) and 3 μM CHIR99021 (on day 3 only) until day 6. On day 6, media was replaced by “Day 6-SP34” medium, until day 8. […]

## O=C(O)C(Cl)Cl [DCA, dichloroacetate]
[1]
  decrease in the BFU-E to CFU-GM ratio: 80%

## N#CC(=Cc1cn(-c2ccccc2)c2ccccc12)C(=O)O [UK5099, 2-Cyano-3-(1-phenyl-1H-indol-3-yl)-2-propenoic acid]
[2]
  CD43+GPA+ cell output: absence of bias
